Experimental data taken from patent US20240025891A1 (Celgene Corporation, priority 2020, published 2024).

System: Onchocerca gutturosa adult male worms
Experiment: Onchocerciasis in vitro screening model Onchocerca gutturosa (worm motility score and MTT/formazan colorimetry)
Settings: Onchocerca gutturosa, read-out: O. gutt Act class

| IC50 [nM] | SMILES |
| --- | --- |
| < 200 | C[C@@H]1CN(Cc2sc(Nc3cc(C(=O)NCC(F)(F)F)ccn3)nc2-c2ccccn2)C[C@H](C)O1 [Example 188, 2-(5-(((2S,6R)-2,6-dimethyl-morpholino)methyl)-4-(pyridin-2-yl)thiazol-2-ylamino)-N-(2,2,2-trifluoroethyl) isonicotinamide] |
| < 200 | OCc1sc(Nc2cc(C(F)(F)F)ccn2)nc1-c1ccccn1 [Example 165, (4-(pyridin-2-yl)-2-(4-(trifluoromethyl)pyridin-2-ylamino)thiazol-5-yl)methanol] |
| 500 to 5000 | Oc1ccc(Nc2nc(-c3ccccn3)cs2)nc1 [Example 122, 6-(4-(pyridin-2-yl)thiazol-2-ylamino) pyridin-3-ol] |

More lines, now with the values behind:

| SMILES | IC50 [nM] |
| --- | --- |
| Cc1sc(Nc2cc(OC3CCOCC3)ccn2)nc1-c1ccccn1 [Example 205, 5-methyl-4-(pyridin-2-yl)-N-(4-(tetrahydro-2H-pyran-4-yloxy)pyridin-2-yl)thiazol-2-amine] | < 200 |
| CC(C)(O)C(=O)N1CCN(c2ccc(Nc3nc(-c4ccccn4)cs3)nc2)CC1 [Example 156, 2-hydroxy-2-methyl-1-(4-(6-(4-(pyridin-2-yl)thiazol-2-ylamino)pyridin-3-yl)piperazin-1-yl)propan-1-one] | < 200 |
| Cc1sc(Nc2ccccn2)nc1-c1ccccn1 [Example 227, 5-methyl-N,4-di(pyridin-2-yl)thiazol-2-amine] | < 200 |
| Cc1ccnc(Nc2cnc(-c3ncccc3C)s2)c1 [Example 114, 2-(3-methylpyridin-2-yl)-N-(4-methylpyridin-2-yl)thiazol-5-amine] | < 200 |
| Cc1ccnc(Nc2nc(-c3ncccc3C#N)cs2)c1 [Example 92, 2-(2-(4-methylpyridin-2-ylamino)thiazol-4-yl)nicotinonitrile] | < 200 |
| c1ccc(-c2csc(Nc3ccc4[nH]ccc4n3)n2)nc1 [Example 135, 4-(pyridin-2-yl)-N-(1H-pyrrolo [3,2-b]pyridin-5-yl)thiazol-2-amine] | 500 to 5000 |
